Experimental data: patent US10000516B2 (priority 2015, dated 2018)

These molecules were tested against T1, Human Factor D (Homo sapiens, UniProt P00746) (assay: Human Factor D assay (Z-L-Lys-SBzl/DTNB, absorbance at 405 nm)). Settings: not given.
T1 construct: purified from human serum; purchased Complement Technology, Inc; host or cells: human serum (natural protein, not recombinant)
T1 sequence (P00746 26-253): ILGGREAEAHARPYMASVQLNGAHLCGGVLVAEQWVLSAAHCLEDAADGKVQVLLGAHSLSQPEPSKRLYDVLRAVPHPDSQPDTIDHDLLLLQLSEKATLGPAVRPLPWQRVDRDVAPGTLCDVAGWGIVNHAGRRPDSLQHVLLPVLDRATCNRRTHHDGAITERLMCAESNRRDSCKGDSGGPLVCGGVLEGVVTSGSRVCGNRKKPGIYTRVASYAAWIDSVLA
Format: biochemical
Experimental: Example 44. Human Factor D Assay
Human Factor D (purified from human serum, Complement Technology, Inc.) at 80 nM final concentration was incubated with test compound at various concentrations for 5 minutes at room temperature in 50 mM Tris, 1M NaCl, pH 7.5. A synthetic substrate Z-L-Lys-SBzl and DTNB (Ellman's reagent) are added to final concentrations of 100 µM each. Absorbance at 405 nm (A405) was recorded at 30 second intervals for 30 minutes using a microplate spectrophotometer. IC50 values are calculated by nonlinear regression of complement Factor D reaction rates as a function of test compound concentration.
`O=C(NCc1cccc(Cl)c1F)[C@@H]1C[C@@H](F)CN1C(=O)Cn1cc(C(=O)C(F)(F)F)c2ccc(P(=O)(O)O)cc21` [Compound 32, 1-(2-((2S,4R)-2-(3-chloro-2-fluorobenzylcarbamoyl)-4-fluoropyrrolidin-1-yl)-2-oxoethyl)-3-(2,2,2-trifluoroacetyl)-1H-indol-6-ylphosphonic acid] gave an IC50 of less than 1 µM.

Same assay, conditions: Table 1; Human Factor D 80 nM, purified from human serum; substrate Z-L-Lys-SBzl; read-out: IC50
Work on `CCP(=O)(O)c1ccc2c(C(C)=O)cn(CC(=O)N3C[C@H](F)C[C@H]3C(=O)NCc3cccc(Cl)c3F)c2c1` [Compound 27, 3-acetyl-1-(2-((2S,4R)-2-(3-chloro-2-fluorobenzylcarbamoyl)-4-fluoropyrrolidin-1-yl)-2-oxoethyl)-1H-indol-6-yl(ethyl)phosphinic acid] yielded an IC50 of less than 1 µM. With `CC(=O)c1cn(CC(=O)N2C[C@H](F)C[C@H]2C(=O)NCc2cccc(Cl)c2F)c2cc(P(=O)(O)OCOC(=O)C(C)(C)C)ccc12` [Compound 28, ((3-acetyl-1-(2-((2S,4R)-2-(3-chloro-2-fluorobenzylcarbamoyl)-4-fluoropyrrolidin-1-yl)-2-oxoethyl)-1H-indol-6-yl)(hydroxy)phosphoryloxy) methyl pivalate] the IC50 was less than 1 µM. In the case of `CC(=O)c1cn(CC(=O)N2C[C@H](F)C[C@H]2C(=O)NCc2cccc(Cl)c2F)c2cc(P(=O)(O)OCC(F)(F)F)ccc12` [Compound 29, 2,2,2-trifluoroethyl hydrogen 3-acetyl-1-(2-((2S,4R)-2-(3-chloro-2-fluorobenzylcarbamoyl)-4-fluoropyrrolidin-1-yl)-2-oxoethyl)-1H-indol-6-ylphosphonate], the IC50 is reported as less than 1 µM. With `CCOP(=O)(OCC)c1cc2c(cc1F)c(C(C)=O)cn2CC(=O)N1C[C@H](F)C[C@H]1C(=O)NCc1cccc(Cl)c1F` [Compound 30, diethyl 3-acetyl-1-(2-((2S,4R)-2-(3-chloro-2-fluorobenzylcarbamoyl)-4-fluoropyrrolidin-1-yl)-2-oxoethyl)-5-fluoro-1H-indol-6-ylphosphonate] the IC50 was less than 1 µM. `CC(=O)c1cn(CC(=O)N2C[C@H](F)C[C@H]2C(=O)NCc2cccc(Cl)c2F)c2cc(P(=O)(O)O)c(F)cc12` [Compound 31, 3-acetyl-1-(2-((2S,4R)-2-(3-chloro-2-fluorobenzylcarbamoyl)-4-fluoropyrrolidin-1-yl)-2-oxoethyl)-5-fluoro-1H-indol-6-ylphosphonic acid] was tested, and the IC50 was less than 1 µM.

Same assay, conditions: Table 3; Human Factor D 80 nM, purified from human serum; substrate Z-L-Lys-SBzl; read-out: IC50 (Stars)
Molecule `CCOP(=O)(OCC)c1ccc2c(c1)c(C(C)=O)cn2CC(=O)N1C[C@H](F)C[C@H]1C(=O)NCCc1ccccc1` [Compound 78, diethyl (3-acetyl-1-(2-((2S,4R)-4-fluoro-2-(phenethylcarbamoyl)pyrrolidin-1-yl)-2-oxoethyl)-1H-indol-5-yl)phosphonate] has an IC50 greater than 10 µM. `CC(=O)c1cn(CC(=O)N2C[C@H](F)C[C@H]2C(=O)NCCc2ccccc2)c2ccc(P(=O)(O)O)cc12` [Compound 79, (3-acetyl-1-(2-((2S,4R)-4-fluoro-2-(phenethylcarbamoyl)pyrrolidin-1-yl)-2-oxoethyl)-1H-indol-5-yl)phosphonic acid] gave an IC50 greater than 10 µM. Molecule `CCOP(=O)(OCC)c1ccc2c(c1)c(C(C)=O)cn2CC(=O)N1C[C@H](F)C[C@H]1C(=O)NCCCc1ccccc1` [Compound 82, diethyl (3-acetyl-1-(2-((2S,4R)-4-fluoro-2-((3-phenylpropyl)carbamoyl)pyrrolidin-1-yl)-2-oxoethyl)-1H-indol-5-yl)phosphonate] has an IC50 greater than 10 µM. In the case of `CC(=O)c1cn(CC(=O)N2C[C@H](F)C[C@H]2C(=O)NCCCc2ccccc2)c2ccc(P(=O)(O)O)cc12` [Compound 83, (3-acetyl-1-(2-((2S,4R)-4-fluoro-2-((3-phenylpropyl)carbamoyl)pyrrolidin-1-yl)-2-oxoethyl)-1H-indol-5-yl)phosphonic acid], the IC50 is reported as greater than 10 µM. In the case of `CCOP(=O)(OCC)c1ccc2c(c1)c(C(C)=O)cn2CC(=O)N1C[C@H](F)C[C@H]1C(=O)NCCCCc1ccccc1` [Compound 86, diethyl (3-acetyl-1-(2-((2S,4R)-4-fluoro-2-((4-phenylbutyl)carbamoyl)pyrrolidin-1-yl)-2-oxoethyl)-1H-indol-5-yl)phosphonate], the IC50 is reported as greater than 10 µM. `CC(=O)c1cn(CC(=O)N2C[C@H](F)C[C@H]2C(=O)NCCCCc2ccccc2)c2ccc(P(=O)(O)O)cc12` [Compound 87, (3-acetyl-1-(2-((2S,4R)-4-fluoro-2-((4-phenylbutyl)carbamoyl)pyrrolidin-1-yl)-2-oxoethyl)-1H-indol-5-yl)phosphonic acid] showed an IC50 greater than 10 µM. With `CCOP(=O)(OCC)c1ccc2c(c1)c(C(C)=O)cn2CC(=O)N1C[C@H](F)C[C@H]1CCNS(=O)(=O)c1ccccc1` [Compound 95, diethyl (3-acetyl-1-(2-((2R,4R)-4-fluoro-2-(2-(phenylsulfonamido)ethyl)pyrrolidin-1-yl)-2-oxoethyl)-1H-indol-5-yl)phosphonate] the IC50 was greater than 10 µM. `CC(=O)c1cn(CC(=O)N2C[C@H](F)C[C@H]2CCNS(=O)(=O)c2ccccc2)c2ccc(P(=O)(O)O)cc12` [Compound 96, (3-acetyl-1-(2-((2R,4R)-4-fIuoro-2-(2-(phenylsulfonamido)ethyl)pyrrolidin-1-yl)-2-oxoethyl)-1H-indol-5-yl)phosphonic acid] gave an IC50 greater than 10 µM. With `CCOP(=O)(OCC)c1ccc2c(c1)c(C(C)=O)cn2CC(=O)N1CC[C@H]1C(=O)Nc1cccc(C)n1` [Compound 100, (S)-diethyl (3-acetyl-1-(2-(2-((6-methylpyridin-2-yl)carbamoyl)azetidin-1-yl)-2-oxoethyl)-1H-indol-5-yl)phosphonate] the IC50 was greater than 10 µM. In the case of `CC(=O)c1cn(CC(=O)N2CC[C@H]2C(=O)Nc2cccc(C)n2)c2ccc(P(=O)(O)O)cc12` [Compound 101, (S)-(3-acetyl-1-(2-(2-((6-methylpyridin-2-yl)carbamoyl)azetidin-1-yl)-2-oxoethyl)-1H-indol-5-yl)phosphonic acid], the IC50 is reported as greater than 10 µM. With `CCOP(=O)(OCC)c1ccc2c(c1)c(C(N)=O)cn2CC(=O)N1[C@@H]2CC[C@@H](C2)[C@H]1C(=O)Nc1cccc(C)n1` [Compound 102, diethyl (3-carbamoyl-1-(2-((1R,3S,4S)-3-((6-methylpyridin-2-yl)carbamoyl)-2-azabicyclo[2.2.1]heptan-2-yl)-2-oxoethyl)-1H-indol-5-yl)phosphonate] the IC50 was greater than 10 µM. Work on `Cc1cccc(NC(=O)[C@@H]2[C@H]3CC[C@H](C3)N2C(=O)Cn2cc(C(N)=O)c3cc(P(=O)(O)O)ccc32)n1` [Compound 103, (3-carbamoyl-1-(2-((1R,3S,4S)-3-((6-methylpyridin-2-yl)carbamoyl)-2-azabicyclo[2.2.1]heptan-2-yl)-2-oxoethyl)-1H-indol-5-yl)phosphonic acid] yielded an IC50 greater than 10 µM. In the case of `CCOP(=O)(OCC)c1nc2c(s1)c(C(N)=O)nn2CC(=O)N1[C@@H]2C[C@@H]2C[C@H]1C(=O)Nc1cccc(-c2cc(C(C)=O)ccc2Cl)c1F` [Compound 104, diethyl (1-(2-((1R,3S,5R)-3-((5′-acetyl-2′-chloro-2-fIuoro-[1,1′-biphenyl]-3-yl)carbamoyl)-2-azabicyclo[3.1.0]hexan-2-yl)-2-oxoethyl)-3-carbamoyl-1H-pyrazolo[3,4-d]thiazol-5-yl)phosphonate], the IC50 is reported as less than 1 µM. For `CC(=O)c1nn(CC(=O)N2C[C@H](F)C[C@H]2C(=O)Nc2cccc(Br)n2)c2cc(P(=O)(O)O)ccc12` [Compound 105, (3-acetyl-1-(2-((2S,4R)-2-((6-bromopyridin-2-yl)carbamoyl)-4-fluoropyrrolidin-1-yl)-2-oxoethyl)-1H-indazol-6-yl)phosphonic acid], the IC50 was less than 1 µM. Molecule `CC(=O)c1nn(CC(=O)N2[C@H](C(=O)Nc3cccc(Br)n3)C[C@@]3(C)C[C@@H]23)c2cc(P(=O)(O)O)ccc12` [Compound 106, (3-acetyl-1-(2-((1R,3S,5R)-3-((6-bromopyridin-2-yl)carbamoyl)-5-methyl-2-azabicyclo[3.1.0]hexan-2-yl)-2-oxoethyl)-1H-indazol-6-yl) phosphonic acid] has an IC50 of less than 1 µM. In the case of `CCOP(=O)(OCC)c1nc2c(s1)c(C(N)=O)nn2CC(=O)N1C[C@H](F)C[C@H]1C(=O)Nc1cccc(C)n1` [Compound 146], the IC50 is reported as greater than 10 µM. `CCOP(=O)(OCC)c1nc2c(s1)c(C(N)=O)nn2CC(=O)N1C[C@H](F)C[C@H]1C(=S)NC1CCC(c2cc3sccc3s2)C1` (some centres unmarked) [Compound 148] showed an IC50 greater than 10 µM.
